Assay results published in patent US11534504B2, “Compositions and methods for stabilizing coelenterazine and analogs and derivatives thereof” (Promega Corporation, priority 2018, dated 2022).
Blank lines part the entries; values can stand above or below the compound they belong to.

Experiments:
[1] = target: T1, cell culture expressing NanoLuc® enzyme (Oplophorus gracilirostris, UniProt Q9GV45, A31E/A60N/A81I/F95D/I117V/K70R/L54V/L99Q/M102K/N193R/P142E/Q151K/Q38R/Q45L/V71I/Y165I); experiment: Luminescence intensity of Nano-Glo substrate formulations with cell culture expressing NanoLuc (Examples 30-33); format: cell-based; conditions: Example 32; 100 mM HP-β-CD
T1 construct: expressed in transfected cells
T1 sequence (Q9GV45 28-196 with tags or gaps with the stated changes limits assumed): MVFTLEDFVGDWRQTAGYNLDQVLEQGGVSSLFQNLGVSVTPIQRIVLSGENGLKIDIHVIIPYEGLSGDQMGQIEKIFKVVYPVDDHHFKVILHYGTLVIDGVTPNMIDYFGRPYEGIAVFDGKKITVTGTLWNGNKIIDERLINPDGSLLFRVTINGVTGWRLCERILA
Description: One volume of Nano-Glo® Luciferase Assay Substrate (Promega Cat. #N113) was combined with 50 volumes of Nano-Glo® Luciferase Assay Buffer (Promega Cat. #N112) containing sodium ascorbate at concentrations ranging from 0 to 300 mM. The solutions were incubated at 37° C. prior to assay at several time points. Nano-Glo® Luciferase Assay Substrate used according to manufacturer's instructions (stored at −20° C. during the course of the experiment and reconstituted for each time point) was used as a positive control. A cell culture expressing NanoLuc® enzyme was used as a sample for each time point. One volume of reconstituted Nano-Glo® Luciferase Assay Buffer was mixed with one volume of sample. After 3 minutes, the luminescence intensity was measured with a Bio-Tek Synergy® H1 96-well plate reader. For each sample, the luminescence intensity was background subtracted and normalized to the −20° C. control signal.
A 4× furimazine solution was prepared by diluting the stock 1:25 in a buffer containing 200 mM MES pH 6.0, 200 mM hydroxypropyl-β-cyclodextrin (HP-β-CD), and 600 mM sodium ascorbate. The solution was lyophilized for 48 hours using a Virtis Advantage Pro® Lyophilizer. […] After 3 min, the luminescence intensity was measured with a Bio-Tek Synergy H1 96-well plate reader. […] For each sample, the luminescence intensity was background subtracted and normalized to the −20° C. control signal. […]

[2] = Absorbance of reconstituted furimazine compositions (Example 2); format: physicochemical
Description: Bulk solid furimazine was diluted in ethanol to a final concentration of 10 mM (solution 1). […] After mixing, vials containing solutions 3a-e were placed in dry ice to freeze for 1 hour. These frozen stocks where then lyophilized overnight for form dry pullulan matrices containing furimazine. […] Absorbance spectra of the formulated dry furimazine (50 nmols) with increasing amounts of pullulan after reconstitution in the PBS buffer are shown in FIG. 4A. Formulated furimazine with pullulan led to an increase in furimazine absorbance in aqueous solution. Concentration of furimazine was determined by Beer's law using the extinction coefficient of furimazine in methanol (21000 M^−1cm^−1) with absorbance measured at 254 nm. […] Absorbance of the formulated furimazine (95 μg) with increasing amounts of pullulan after reconstitution in the PBS buffer are shown in FIG. 4B. The solid furimazine formulated with increasing concentrations of pullulan matrix led to an increased in absorbance, and thus furimazine concentration in PBS buffer, compared to the conditions that contained only furimazine without pullulan.

[3] = Analytical HPLC of Pluronic F-127 formulated substrates reconstituted in water (Examples 34-36); format: physicochemical
Description: 2.5 mgs of Pluronic® F-127 (Sigma Aldrich) were massed out into […] snap-top Eppendorf tubes. The polymer was heated to 70° C. in a water bath until melted, becoming a clear solution. […] 5 μL of this stock was added to the melted polymer and pipetted to mix. […] Condition 2—After addition of substrate, the substrate/polymer solution was further diluted with 45 μL of water, frozen, and lyophilized overnight.
Samples from both conditions 1 and 2 were reconstituted in water, diluted to 100 μM, and analyzed for chemical integrity via analytical HPLC (FIG. 54).
This formulation was also prepared for the coelenterazine analog, furimazine. 2.5 mgs of Pluronic® F-127(Sigma Aldrich) were massed out into 1.5 mL, snap-top Eppendorf tubes. The polymer was heated to 70° C. in a water bath until melted. A 10 mM stock solution of furimazine was prepared in EtOH. 5 μL of this stock was then added to the melted polymer and pipetted to mix. […] Condition 2—After addition of substrate, the substrate/polymer solution was further diluted with 45 μL of water, frozen, and then lyophilized overnight.
25 mgs of Pluronic® F-127 were massed out into a 1.5 mL, snap-top Eppendorf tube. The polymer was heated to 70° C. in a water bath until melted. […] An additional 50 μL of EtOH was used to wash and aid transfer of the substrate into the polymer solution. The solvent was removed under reduced pressure without heat.
After lyophilization, each sample was reconstituted with either 500 μL, 400 μL, 250 μL, or 100 μL water, respectively.

Compound: hydroxypropyl-β-cyclodextrin [HP-β-CD]
- signal enhancement compared to Nano-Glo buffer alone [1]: 15 to 20%

- absorbance at 254 nm ([2]; 19.08 μg furimazine in 0.5 mL PBS pH 6.8, 30 minutes at room temperature): 0.0571
- calculated concentration of furimazine in solution ([2]; Beer's law from absorbance at 254 nm, 19.08 μg in 0.5 mL PBS pH 6.8): 0.0082 mM
- Area Percent, peak at retention time 6.104-6.109 min ([3]; Example 35): 0.705%
- Area Percent, peak at retention time 6.541-6.548 min ([3]; Example 35): 1.407%
- Area Percent, peak at retention time 7.949-7.957 min ([3]; Example 35): 1.030%
- Area Percent, peak at retention time 5.028-5.038 min (main peak) ([3]; Example 35, furimazine, 100 μM): 96.858%
Compound: O=c1c(Cc2ccco2)nc2c(Cc3ccccc3)[nH]c(-c3ccccc3)cn1-2 [furimazine, 8-benzyl-2-(furan-2-ylmethyl)-6-phenylimidazo[1,2-a]pyrazin-3(7H)-one]

- Area Percent, peak at retention time 6.969-6.985 min ([3]; Example 34): 1.571%
Compound: O=c1c(Cc2ccco2)nc2c(Cc3ccccc3)[nH]c(-c3cccc(O)c3)cn1-2 [JRW-0238, 8-benzyl-2-(furan-2-ylmethyl)-6-(3-hydroxyphenyl)imidazo[1,2-a]pyrazin-3(7H)-one]
